ChEMBL document CHEMBL1147618, “Crucial amides for dimerization inhibitors of HIV-1 protease” (Bioorg Med Chem Lett, 2004)
pIC50: −log10 of the molar value.

Legend:
[1] = molecular target: Human immunodeficiency virus type 1 protease (Human immunodeficiency virus 1, UniProt Q72874); assay: Inhibitory concentration against Protease
[2] = molecular target: Human immunodeficiency virus type 1 protease (Human immunodeficiency virus 1) (UniProt Q72874); assay: Relative loss of potency of compound in inhibiting Protease was determined

`CC(C)C[C@H](NC(=O)[C@@H](NC(=O)CCCCCCCCCCCCCCC(=O)N[C@@H](C(N)=O)C(=O)N[C@H](Cc1ccccc1)C(=O)O)[C@H](C)O)C(=O)N[C@@H](Cc1ccccc1)C(N)=O` showed a pIC50 [1] of 5.23 and a Relative loss of potency [2] of 1.
`CC(C)C[C@H](NC(=O)[C@@H](NC(=O)CCCCCCCCCCCCCCC(=O)N[C@@H](C(N)=O)C(=O)N[C@H](Cc1ccccc1)C(=O)O)[C@H](C)O)C(=O)N(C)[C@@H](Cc1ccccc1)C(N)=O` gave a pIC50 [1] of 4.89 and a Relative loss of potency [2] of 2.2.
`CC(C)C[C@H](NC(=O)[C@H]([C@H](C)O)N(C)C(=O)CCCCCCCCCCCCCCC(=O)N[C@@H](C(N)=O)C(=O)N[C@H](Cc1ccccc1)C(=O)O)C(=O)N[C@@H](Cc1ccccc1)C(N)=O` was tested, and the pIC50 [1] was 5.08 and the Relative loss of potency [2] was 1.4.
In the case of `CC(C)C[C@H](NC(=O)[C@@H](NC(=O)CCCCCCCCCCCCCCC(=O)N[C@@H](C(N)=O)C(=O)N(C)[C@H](Cc1ccccc1)C(=O)O)[C@H](C)O)C(=O)NCCc1ccccc1`, the pIC50 [1] was 5.24.
Work on `CC(C)C[C@@H](C(=O)N[C@@H](Cc1ccccc1)C(N)=O)N(C)C(=O)[C@@H](NC(=O)CCCCCCCCCCCCCCC(=O)N[C@@H](C(N)=O)C(=O)N[C@H](Cc1ccccc1)C(=O)O)[C@H](C)O` yielded a pIC50 [1] of 5.10 and a Relative loss of potency [2] of 1.4.
Compound `CC(C)C[C@H](NC(=O)[C@@H](NC(=O)CCCCCCCCCCCCCCC(=O)N(C)[C@@H](C(N)=O)C(=O)N[C@H](Cc1ccccc1)C(=O)O)[C@H](C)O)C(=O)N[C@@H](Cc1ccccc1)C(N)=O` has a pIC50 [1] of 5.35.
`CC(C)C[C@H](NC(=O)[C@@H](NC(=O)CCCCCCCCCCCCCCC(=O)N[C@@H](C(N)=O)C(=O)N(C)[C@H](Cc1ccccc1)C(=O)O)[C@H](C)O)C(=O)N[C@@H](Cc1ccccc1)C(N)=O` gave a pIC50 [1] of 5.02 and a Relative loss of potency [2] of 1.6.
